Results taken from US20220079952A1, “Uses of Radiation and Benzodiazepine Derivatives in Cancer Therapies” (Emory University, priority 2019, published 2022).

What was measured:
[1] = test system: A375 cells; experiment: Melanoma cell viability, 48 hours treatment, A375; format: cell-based, human; conditions: for effect on cell viability: A375; for IC50: Homo sapiens, A-375, A375, 48 hours, read-out: IC50, reduction in cell viability
Protocol: (§1) The electrophysiology whole-cell patch clamp experiments occur within a minute. […] To determine their effect on melanoma cell survival, A375 and B16F10 were treated with QH-II-066, KRM-II-08, or diazepam for 48 hours.

[2] = test system: B16F10 cells; experiment: Melanoma cell viability, 48 hours treatment, B16F10; format: cell-based, murine; conditions: for effect on cell viability: B16F10; for IC50: Mus musculus, B16-F10, B16F10, 48 hours, read-out: IC50, reduction in cell viability
Protocol: as §1

[3] = test system: GABAAR; experiment: Whole-cell patch clamp electrophysiology in A375 melanoma cells; format: cell-based, human; conditions: for mode of action at GABAAR from electrophysiology: A375 and B16F10 cells; for EC50: read-out: EC50, enhancement of the effect of GABA, [GABA]=1 μM, benzodiazepine 0-10 μM
Protocol: (§2) GABAAR is an anion (Cl—) channel that changes the transmembrane potential of cells, either depolarizing or hyperpolarizing depending upon channel directionality and activity of other membrane transport protein. To establish autonomous expression of GABAAR subunits in melanoma cell lines results in assembly of a functional ligand-dependent channel, electrophysiological testing was performed in human melanoma (A375) and murine (B16F10) lines. Patch clamp currents were recorded for A375 and B16F10. […] A fully functional benzodiazepine binding site requires assembly of a GABAAR with a canonical αβαβγ subunit stoichiometry.
(§3) Two benzodiazepines were tested (QH-II-066 and KRM-II-08). QH-II-066 and KRM-II-08 differ in having H and F at R2′ of the benzene ring of benzodiazepine, respectively.

[4] = test system: GABAAR; experiment: Whole-cell patch clamp electrophysiology in B16F10 melanoma cells; format: cell-based, murine; conditions: for EC50: read-out: EC50, enhancement of the effect of GABA, [GABA]=1 μM, benzodiazepine 0-10 μM
Protocol: as §2, §3

[5] = test system: medulloblastoma cancer cells; conditions: sustained incubation; cited from earlier work
[6] = test system: A375 and B16F10 cells; experiment: p53 expression and mitochondrial transmembrane potential in melanoma cells; format: cell-based, human and murine
Protocol: Changes induced by the benzodiazepine as a consequence of creating a net efflux of chloride anion, included an upregulation of TP53 and a depolarization of the mitochondrial transmembrane potential, ultimately resulting in apoptosis via the intrinsic mitochondria-mediated pathway. Thus, Experiments were performed to determine if benzodiazepine elicited a similar response in A375 and B16F10 cells.

[7] = test system: B16F10-GP tumor; experiment: B16F10-GP syngeneic melanoma murine model, bilateral flank tumors, tumor volume; format: in vivo, C57BL/6 mice
Protocol: The clinical observation of improved outcome for RT-ICI was analyzed using a murine model. B16F10-GP cells (0.5×10^5) were implanted in both right and left flanks of C57BL/6 mice (FIG. 1A). A single dose of radiation at 10 Gy was delivered to the right flank only using a 0.5 cm bolus material, on Day 10 after implanting the melanoma cells. Day 10 was chosen to allow for growth of tumor cells in flanks to the point where they became palpable. […] Anti-PD-L1 was given by intraperitoneal injection every third day.
Since melanoma cell viability in vitro was impaired by benzodiazepines QH-II-066 and KRM-II-08, experiments were performed to determine if benzodiazepine had anti-tumor activity in vivo. […] Given that immune checkpoint inhibitor efficacy is enhanced by radiation therapy, experiments were performed to determine whether RT combined with QH-II-066 synergize to control ipsilateral and abscopal tumor volume using the B16F10-GP syngeneic melanoma murine model. B16F10-GP melanoma cells were implanted (0.5×10^5) in both right and left flanks of C57BL/6 mice (FIG. 3B). A single dose of radiation (either 10 or 5 Gy) was delivered to the right flank on Day 10 after implanting of B16F10-GP cells. […] There was no difference when using different radiation doses (10 or 5 Gy).
Having observed that QH-II-066 could sensitize a melanoma tumor to radiation and that expression of genes with roles in the cytokine:cytokine receptor interaction pathway was enhanced, experiments were performed to determine if QH-II-066 was capable of potentiating the programmed death ligand 1 immune checkpoint inhibitor (anti-PD-L1). B16F10-GP melanoma cells were implanted in both the right and left flanks of C57BL/6 mice. Day 10 in both the right and left flanks injected i.p.: (i) QH-II-066 (10 mg/kg), then every day for seven days; (ii) anti-PD-L1 (200 μg), then every third day thereafter; (iii) QH-II-066 (10 mg/kg) and anti-PD-L1 (200 μg) at time and frequency detailed for monotherapy treatment groups (FIG. 5).
Having observed potentiation of radiation and anti-PD-L1 by QH-II-066 individually, there might be a more significant tumor response if we administered a ‘combo’ consisting of radiation (5 Gy), anti-PD-L1, plus QH-II-066. As before, B16F10-GP melanoma cells were implanted in both the right and left flanks of C57BL/6 mice (FIG. 5). The following experimental groups were tested: (i) vehicle alone control; (ii) QH-II-066 alone (10 mg/kg); (iii) a single morning dose of radiation (5 Gy) delivered to the right flank, followed by evening dose of QH-II-066 (10 mg/kg); (iv) anti-PD-L1 plus QH-II-066; (v) a single morning dose of radiation (5 Gy) delivered to the right flank, followed by an evening dose of anti-PD-L1; (vi) a triple or combo therapy, consisting of a single morning dose of radiation (5 Gy) delivered to the right flank, followed by evening doses of anti-PD-L1 plus QH-II-066. After initial i.p. injection of QH-II-066 on Day 10, QH-II-066 was injected i.p. every day for seven days; while anti-PD-L1 was injected i.p. every third day thereafter.
B16F10-GP cell line was grown in Dulbecco's Modified Eagle's medium (DMEM) supplemented with 10% Fetal Bovine Serum, 100 U/mL penicillin and 100 μg/mL streptomycin, 2 mM glutamine. Cells were cultured at 37° C. with 5% CO2.
B16F10-GP melanoma cells ([…]) were implanted in matrigel (25%) on right and left flank of 6-8 week old female C57BL/6 mice (Jackson Laboratories, Bar Harbor, Me.). […]

[8] = test system: CD8+ T cells in B16F10-GP tumors; experiment: Immunophenotyping of tumor infiltrating lymphocytes of bilateral B16F10-GP tumors by flow cytometry; format: in vivo, C57BL/6 mice
Protocol: Mice were sacrificed and tumor infiltrating lymphocytes (TILs) were isolated, stained, and analyzed using flow cytometry. For cytokine analysis, TILs were stimulated with GP33 peptide for 6 hours in presence of GolgiStop™ and GolgiPlug™ and analyzed using flow cytometry. Tumor weight and Lymphocyte number per gram tumor.
To determine whether these apparent synergistic effects were mediated by an enhanced immune response, immunophenotyping of bilateral tumors was performed. […] (FIG. 4A-4E).

[9] = non-human primates, previously tested; cited from earlier work

| SMILES | effect on cell viability [1] | effect on cell viability [2] | mode of action at GABAAR from electrophysiology [3] | EC50 ([3]; A375 cells) [µM] | EC50 [4] [µM] | IC50 [1] [µM] | IC50 [2] [µM] | effectiveness in impairing cell viability versus diazepam [5] | also measured |
| --- | --- | --- | --- | --- | --- | --- | --- | --- | --- |
| CC(=O)[C@H]1CC[C@H]2[C@@H]3CC[C@H]4C[C@H](O)CC[C@]4(C)[C@H]3CC[C@]12C [Allopregnanolone, allopregnanolone, reference compound] | does not impair | does not impair |  |  |  |  |  |  |  |
| NCCCC(=O)O [GABA, gamma-aminobutyric acid, reference compound] |  |  |  |  |  |  |  |  | maximal response to GABA (current) ([3]; A375 cells, patch clamp, n=8): −230±41 pA; maximal response to GABA (current) ([4]; patch clamp, n=6): −430±70 pA |
| C#Cc1ccc2c(c1)C(c1ccccc1F)=NCC(=O)N2C [KRM-II-08, 7-ethynyl-5-(2-fluorophenyl)-1-methyl-1,3-dihydro-2H-benzo[e][1,4]diazepin-2-one] |  |  | GABAAR positive allosteric modulators | 1.7 ± 0.2 | 0.2 ± 0.1 | 1.33 ± 0.08 | 6.1 ± 0.8 | more than an order of magnitude improved effectiveness |  |
| C#Cc1ccc2c(c1)C(c1ccccc1)=NCC(=O)N2C [QH-II-066, 7-ethynyl-1-methyl-5-phenyl-1,3-dihydro-2H-benzo[e][1,4]diazepin-2-one] |  |  | GABAAR positive allosteric modulators | 0.9 ± 0.4 | 0.16 ± 0.09 | 2.7 ± 0.2 | 8.2 ± 0.9 | more than an order of magnitude improved effectiveness | expression of p53 [6]: enhanced expression of p53; time to depolarization of the mitochondrial transmembrane potential [6]: ≤ 10 min; ipsilateral and abscopal tumor effect, combo of radiation, anti-PD-L1 and QH-II-066 ([7]; 5 Gy right flank Day 10, then anti-PD-L1 200 μg every third day plus QH-II-066 10 mg/kg daily 7 days): complete tumor regression in some animals; B16F10-GP tumor growth, monotherapy dose response ([7]; 10, 25 and 50 mg/kg i.p. daily for a week, negligible difference between 25 and 50 mg/kg): dose-dependent reduction; anti-tumor effect on ipsilateral and contralateral tumor, combination with radiation therapy ([7]; 10 or 5 Gy right flank Day 10, then QH-II-066 10 mg/kg daily 7 days): strongly synergistic anti-tumor effect; tumor volume, dual therapy QH-II-066 and anti-PD-L1 ([7]; QH-II-066 10 mg/kg daily 7 days plus anti-PD-L1 200 μg every third day): most significant reduction in tumor volume; tumor volume, monotherapy ([7]; QH-II-066 10 mg/kg i.p. daily 7 days or anti-PD-L1 200 μg i.p. every third day, from Day 10): comparable reductions in tumor volume; CD8+ T cell infiltration of ipsilateral tumor, radiation in combination with QH-II-066 ([8]; 10 or 5 Gy plus QH-II-066, compared to vehicle): enhanced infiltration of CD8+ T cells; CD8+ T cell infiltration of tumor, QH-II-066 alone ([8]; QH-II-066 10 mg/kg alone, compared to vehicle): did not induce CD8+ T cell infiltration; antigen-specific, poly-functional T cells (expressing IFN-γ and TNF-α) in ipsilateral and contralateral tumors ([8]; ipsilateral radiation therapy + systemic QH-II-066): significant increase; adverse side effects or toxicity [9]: without any adverse side effects or toxicity |
| CN1C(=O)CN=C(c2ccccc2)c2cc(Cl)ccc21 [diazepam, reference compound] | no effect | no effect |  |  |  |  |  |  |  |
